Assay results taken from PMC4673880, “Structure and substrate selectivity of the 750-kDa α6β6 holoenzyme of geranyl-CoA carboxylase” (Nature Communications, 2015).

Molecular target: T1, PfGCC (geranyl-CoA carboxylase holoenzyme, α6β6) (Pseudomonas protegens, UniProt Q4K8Z5)
T1 construct: gene atuC; bicistronic; beta N-terminal His6-tagged (tag not removed), alpha untagged; expressed in E. coli BL21 Star (DE3); 750-kDa α6β6 dodecamer; with Geranyl-CoA carboxylase alpha subunit (biotin-containing; BC, BT and BCCP domains)
Experiment: coupled pyruvate kinase / lactate dehydrogenase assay, ATP hydrolysis as NADH loss at […] nm
Type: biochemical
Conditions: pH 8.0, 0.5 mM ATP, 8 mM MgCl2, 40 mM KHCO3, 250 mM KCl; cis/trans mixture, only ~25% cis, concentration counted as total; read-out: apparent Km

## geranyl-CoA
  Km: 50 µM
